In brackets after ≈: the same amount, converted by molar mass.
Experiments:
Mus musculus [1] = test: Ability to induce tail vein irritation in mice administered intravenously determined by tail vein assay; Activity- clean; format: functional, organism-based
Aspergillus fumigatus = test: Concentration required to inhibit 90-100% of visible fungal growth in Aspergillus fumigatus (WM1) tested in vitro; format: functional
Candida albicans = test: Concentration required to inhibit 90-100% of visible fungal growth in Candida albicans (A26) tested in vitro; format: functional
Cryptococcus neoformans = test: Concentration required to inhibit 90-100% of visible fungal growth in (M1 106) tested in vitro; format: functional
Mus musculus [2] = test: Effective dose required to cure 50% of fungal infection in mice administered intraperitoneally tested in vivo; format: functional
Mus musculus [3] = test: Ability to induce tail vein irritation in mice administered intravenously determined by tail vein assay; Activity- Positive; format: functional, organism-based

| Structure (SMILES) | Activity (Mus musculus [1]) | MIC (Aspergillus fumigatus) | MIC (Candida albicans) | MIC (Cryptococcus neoformans) | ED50 (Mus musculus [2]) | Activity (Mus musculus [3]) |
| --- | --- | --- | --- | --- | --- | --- |
| C/C=C1/NC(=O)[C@H]([C@H](C)O)NC(=O)[C@H](CCN)NC(=O)[C@H](CCCCN)NC(=O)[C@H](CC(=O)O)NC(=O)[C@@H](CCN)NC(=O)[C@@H](NC(=O)C[C@H](O)CCCCCCCCCCC)COC(=O)[C@H]([C@H](O)CCl)NC(=O)[C@H]([C@H](O)C(=O)NCCO)NC1=O | Activity- clean | > 20 µg/mL | 5 µg/mL (≈ 4 µM) | 0.625 µg/mL (≈ 0.5 µM) | – | – |
| C/C=C1\NC(=O)[C@H]([C@H](C)O)NC(=O)[C@H](CCN)NC(=O)[C@H](CCCCN)NC(=O)[C@H](CC(=O)O)NC(=O)[C@@H](CCN)NC(=O)[C@@H](NC(=O)C[C@H](O)CCCCCCCCCCC)COC(=O)[C@H]([C@H](O)CCl)NC(=O)[C@H]([C@H](O)C(=O)NC(Cc2ccccc2)C(=O)OC)NC1=O (some centres undefined) | Activity- clean | > 20 µg/mL | 10 µg/mL (≈ 7.3 µM) | 1.25 µg/mL (≈ 0.913 µM) | > 20 mg/kg | – |
| C/C=C1/NC(=O)[C@H]([C@H](C)O)NC(=O)[C@H](CCN)NC(=O)[C@H](CCCCN)NC(=O)[C@H](CC(=O)O)NC(=O)[C@@H](CCN)NC(=O)[C@@H](NC(=O)C[C@H](O)CCCCCCCCCCC)COC(=O)[C@H]([C@H](O)CCl)NC(=O)[C@H]([C@H](O)C(=O)NC)NC1=O | Activity- clean | > 20 µg/mL | 1.25 µg/mL (≈ 1.02 µM) | 0.156 µg/mL (≈ 0.128 µM) | > 20 mg/kg | – |
| C/C=C1/NC(=O)[C@H]([C@H](C)O)NC(=O)[C@H](CCN)NC(=O)[C@H](CCCCN)NC(=O)[C@H](CC(=O)O)NC(=O)[C@@H](CCN)NC(=O)[C@@H](NC(=O)C[C@H](O)CCCCCCCCCCC)COC(=O)[C@H]([C@H](O)CCl)NC(=O)[C@H]([C@H](O)C(=O)NCC(=O)OC)NC1=O | Activity- clean | > 20 µg/mL | 2.5 µg/mL (≈ 1.95 µM) | 0.08 µg/mL (≈ 0.0626 µM) | > 20 mg/kg | – |
| C/C=C1\NC(=O)[C@H]([C@H](C)O)NC(=O)[C@H](CCN)NC(=O)[C@H](CCCCN)NC(=O)[C@H](CC(=O)O)NC(=O)[C@@H](CCN)NC(=O)[C@@H](NC(=O)C[C@H](O)CCCCCCCCCCC)COC(=O)[C@H]([C@H](O)CCl)NC(=O)[C@H]([C@H](O)C(=O)NCCC)NC1=O | Activity- clean | > 20 µg/mL | 20 µg/mL (≈ 16 µM) | 5 µg/mL (≈ 4 µM) | 14 mg/kg | – |
| C/C=C1/NC(=O)[C@H]([C@H](C)O)NC(=O)[C@H](CCN)NC(=O)[C@H](CCCCN)NC(=O)[C@H](CC(=O)O)NC(=O)[C@@H](CCN)NC(=O)[C@@H](NC(=O)C[C@H](O)CCCCCCCCCCC)COC(=O)[C@H]([C@H](O)CCl)NC(=O)[C@H]([C@H](O)C(=O)NC2CC2)NC1=O | Activity- clean | > 20 µg/mL | 5 µg/mL (≈ 4.01 µM) | 0.312 µg/mL (≈ 0.25 µM) | > 20 mg/kg | – |
| C/C=C1/NC(=O)[C@H]([C@H](C)O)NC(=O)[C@H](CCN)NC(=O)[C@H](CCCCN)NC(=O)[C@H](CC(=O)O)NC(=O)[C@@H](CCN)NC(=O)[C@@H](NC(=O)C[C@H](O)CCCCCCCCCCC)COC(=O)[C@H]([C@H](O)CCl)NC(=O)[C@H]([C@H](O)C(N)=O)NC1=O | Activity- clean | > 20 µg/mL | 0.312 µg/mL (≈ 0.259 µM) | < 1 µg/mL | > 20 mg/kg | – |
| C/C=C1/NC(=O)[C@H]([C@H](C)O)NC(=O)[C@H](CCN)NC(=O)[C@H](CCCCN)NC(=O)[C@H](CC(=O)O)NC(=O)[C@@H](CCN)NC(=O)[C@@H](NC(=O)C[C@H](O)CCCCCCCCCCC)COC(=O)[C@H]([C@H](O)CCl)NC(=O)[C@H]([C@H](O)C(=O)O)NC1=O | – | > 20 µg/mL | 0.625 µg/mL (≈ 0.517 µM) | 0.078 µg/mL (≈ 0.0646 µM) | – | Activity- Positive |
| C/C=C1/NC(=O)[C@H]([C@@H](C)O)NC(=O)[C@H](CCN)NC(=O)[C@H](CCCCN)NC(=O)[C@H](CC(=O)O)NC(=O)[C@@H](CCN)NC(=O)[C@@H](NC(=O)C[C@H](O)CCCCCCCCCCC)COC(=O)[C@H]([C@H](O)CCl)NC(=O)[C@H]([C@H](O)C(=O)NCC)NC1=O | – | > 20 µg/mL | 10 µg/mL (≈ 8.1 µM) | 1.25 µg/mL (≈ 1.01 µM) | – | – |
| C/C=C1/NC(=O)[C@H]([C@H](C)O)NC(=O)[C@H](CCN)NC(=O)[C@H](CCCCN)NC(=O)[C@H](CC(=O)O)NC(=O)[C@@H](CCN)NC(=O)[C@@H](NC(=O)C[C@H](O)CCCCCCCCCCC)COC(=O)[C@H]([C@H](O)CCl)NC(=O)[C@H]([C@H](O)C(=O)NCCN(C)C)NC1=O | Activity- clean | > 20 µg/mL | 5 µg/mL (≈ 3.91 µM) | 1.25 µg/mL (≈ 0.978 µM) | > 20 mg/kg | – |
| C/C=C1/NC(=O)[C@H]([C@@H](C)O)NC(=O)[C@H](CCN)NC(=O)[C@H](CCCCN)NC(=O)[C@H](CC(=O)O)NC(=O)[C@@H](CCN)NC(=O)[C@@H](NC(=O)C[C@H](O)CCCCCCCCCCC)COC(=O)[C@H]([C@H](O)CCl)NC(=O)[C@H]([C@H](O)C(=O)NCCCN(C)C)NC1=O | – | > 20 µg/mL | 20 µg/mL (≈ 15.5 µM) | 1.25 µg/mL (≈ 0.968 µM) | – | – |
| C/C=C1/NC(=O)[C@H]([C@H](C)O)NC(=O)[C@H](CCN)NC(=O)[C@H](CCCCN)NC(=O)[C@H](CC(=O)O)NC(=O)[C@@H](CCN)NC(=O)[C@@H](NC(=O)C[C@H](O)CCCCCCCCCCC)COC(=O)[C@H]([C@H](O)CCl)NC(=O)[C@H]([C@H](O)C(=O)NC2CCC2)NC1=O | Activity- clean | > 20 µg/mL | 5 µg/mL (≈ 3.97 µM) | 1.25 µg/mL (≈ 0.991 µM) | > 20 mg/kg | – |
| C/C=C1/NC(=O)[C@H]([C@H](C)O)NC(=O)[C@H](CCN)NC(=O)[C@H](CCCCN)NC(=O)[C@H](CC(=O)O)NC(=O)[C@@H](CCN)NC(=O)[C@@H](NC(=O)C[C@H](O)CCCCCCCCCCC)COC(=O)[C@H]([C@H](O)CCl)NC(=O)[C@H]([C@H](O)C(=O)NCCCC)NC1=O | Activity- clean | > 20 µg/mL | 20 µg/mL (≈ 15.8 µM) | 1.25 µg/mL (≈ 0.99 µM) | > 20 mg/kg | – |
